Results reported in the NIST ThermoML archive (doi:10.1016/j.jct.2019.03.035).
± gives the expanded uncertainty stated by the source.

Key:
[1] = refractive index (other wavelength) (dimensionless); settings: 100 kPa, Liquid, Wavelength=632.8 nm, minimum deviation angle technique
[2] = refractive index (other wavelength) (dimensionless); xn = mol fraction of the nth substance listed; settings: 288.62 K; 100 kPa; Liquid; Wavelength=632.8 nm; minimum deviation angle technique; x2 = 0

Compound	refractive index ([1]; 285.47 K)	refractive index ([1]; 286.4 K)	refractive index ([1]; 287.49 K)	refractive index ([1]; 288.44 K)	refractive index ([1]; 288.62 K)	refractive index ([1]; 289.45 K)	refractive index ([1]; 290.7 K)	refractive index ([1]; 291.77 K)	refractive index ([1]; 292.66 K)	refractive index ([1]; 293.89 K)	refractive index [2]	refractive index ([1]; 285.51 K)	refractive index ([1]; 286.56 K)	refractive index ([1]; 287.57 K)	refractive index ([1]; 288.6 K)	refractive index ([1]; 289.75 K)	refractive index ([1]; 290.67 K)	refractive index ([1]; 291.68 K)	refractive index ([1]; 292.74 K)	refractive index ([1]; 293.98 K)
N#Cc1ccccc1 [benzonitrile]	1.5293 ± 0.0003	1.5288 ± 0.0003	1.5283 ± 0.0003	1.5278 ± 0.0003	1.5277 ± 0.0003	1.5274 ± 0.0003	1.5268 ± 0.0003	1.5262 ± 0.0003	1.5258 ± 0.0003	1.5252 ± 0.0003	–	–	–	–	–	–	–	–	–	–
CCCCCCCCCC [decane] + N#Cc1ccccc1	–	–	–	–	–	–	–	–	–	–	1.4128 ± 0.0003	–	–	–	–	–	–	–	–	–
CCCCCCCCCC [decane]	–	–	–	–	1.4128 ± 0.0003	–	–	–	–	–	–	1.4142 ± 0.0003	1.4137 ± 0.0003	1.4133 ± 0.0003	1.4128 ± 0.0003	1.4123 ± 0.0003	1.4119 ± 0.0003	1.4114 ± 0.0003	1.411 ± 0.0003	1.4104 ± 0.0003
